In ChEMBL document CHEMBL3102755, “Diphenylpropane Derivatives as Agonist of PPAR Nuclear Receptors” (ACS Med Chem Lett, 2013) one finds EC50, Activity and Kp data, which are given here for three compounds.

What is called EC50 is the concentration needed to bring the measured effect to its halfway point.

The source made the active and inactive calls. No cut-off for these calls is given here.

The target in data set [1] is T1, Peroxisome proliferator-activated receptor alpha (Homo sapiens, UniProt Q07869).
T1 sequence (Q07869 whole entry): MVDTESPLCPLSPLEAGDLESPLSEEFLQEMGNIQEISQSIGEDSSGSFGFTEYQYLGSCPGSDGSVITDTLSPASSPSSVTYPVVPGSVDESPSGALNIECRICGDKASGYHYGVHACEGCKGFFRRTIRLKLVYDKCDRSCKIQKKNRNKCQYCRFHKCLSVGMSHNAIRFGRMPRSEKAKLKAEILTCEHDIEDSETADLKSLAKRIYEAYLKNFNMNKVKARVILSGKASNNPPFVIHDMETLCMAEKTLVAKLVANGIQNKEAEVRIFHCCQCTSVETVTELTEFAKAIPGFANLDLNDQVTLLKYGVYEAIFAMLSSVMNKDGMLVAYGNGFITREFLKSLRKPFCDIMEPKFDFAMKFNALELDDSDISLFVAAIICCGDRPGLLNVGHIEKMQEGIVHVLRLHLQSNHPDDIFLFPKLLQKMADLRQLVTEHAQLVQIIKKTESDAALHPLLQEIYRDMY
The data set can be described thus: Agonist activity at human PPARalpha ligand binding domain expressed in monkey COS7 cells cotransfected with Gal4 by luciferase reporter gene assay. The format is cell-based, COS-7. Background: A reporter such as luciferase makes a cellular process visible.

For data set [2], the target named is T2, Peroxisome proliferator-activated receptor gamma (Homo sapiens, UniProt P37231).
T2 sequence (P37231 whole entry): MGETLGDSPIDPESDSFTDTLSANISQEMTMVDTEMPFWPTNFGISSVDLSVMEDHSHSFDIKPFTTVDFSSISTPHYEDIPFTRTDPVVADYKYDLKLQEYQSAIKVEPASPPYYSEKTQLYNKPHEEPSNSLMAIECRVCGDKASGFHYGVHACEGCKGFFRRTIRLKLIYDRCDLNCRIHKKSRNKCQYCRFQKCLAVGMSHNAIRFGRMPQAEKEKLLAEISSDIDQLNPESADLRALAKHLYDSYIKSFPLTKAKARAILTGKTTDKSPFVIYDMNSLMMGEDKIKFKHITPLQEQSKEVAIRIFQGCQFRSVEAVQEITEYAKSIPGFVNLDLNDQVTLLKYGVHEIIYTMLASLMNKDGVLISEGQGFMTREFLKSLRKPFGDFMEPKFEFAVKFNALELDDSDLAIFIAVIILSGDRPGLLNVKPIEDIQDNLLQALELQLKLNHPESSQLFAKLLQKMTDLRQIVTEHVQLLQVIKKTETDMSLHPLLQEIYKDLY
Nature of the data set: Agonist activity at human PPARgamma ligand binding domain expressed in monkey COS7 cells cotransfected with Gal4 by luciferase reporter gene assay. The data set is classed as cell-based, COS-7.

Data set [3] addresses T3, Peroxisome proliferator-activated receptor delta (Homo sapiens, UniProt Q03181).
T3 sequence (Q03181 whole entry): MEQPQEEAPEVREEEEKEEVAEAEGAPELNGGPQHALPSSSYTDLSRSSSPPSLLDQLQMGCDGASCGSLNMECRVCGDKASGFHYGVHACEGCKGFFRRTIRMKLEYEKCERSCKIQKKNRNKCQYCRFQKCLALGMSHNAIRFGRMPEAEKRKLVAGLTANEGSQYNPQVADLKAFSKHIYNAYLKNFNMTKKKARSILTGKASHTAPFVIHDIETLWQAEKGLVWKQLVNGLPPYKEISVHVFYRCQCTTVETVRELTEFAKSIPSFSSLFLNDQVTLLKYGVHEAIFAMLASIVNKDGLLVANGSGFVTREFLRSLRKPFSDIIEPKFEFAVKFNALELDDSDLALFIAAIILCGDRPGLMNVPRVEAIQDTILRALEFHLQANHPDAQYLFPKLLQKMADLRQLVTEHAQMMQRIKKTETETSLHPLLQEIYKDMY
The data set can be described thus: Agonist activity at human PPARdelta ligand binding domain expressed in monkey COS7 cells cotransfected with Gal4 by luciferase reporter gene assay. The format is cell-based, COS-7.

For data set [4], the system named is Mus musculus. Nature of the data set: Cognitive enhancing effect in APPPS1 transgenic C57BL/6J mouse model at 1 to 10 mg/kg for 60 days by Morris-Water maze assay. The data set is classed as functional, organism-based.
Data set [5] relates to Mus musculus. Nature of the data set: Antialzheimer activity in APPPS1 transgenic C57BL/6J mouse model assessed as decrease in beta-amyloid accumulation in brain at 1 to 10 mg/kg. The data set is classed as functional, organism-based.
Data set [6] is described as follows: Ratio of AUC (0 to 24 hrs) in brain to plasma in mouse at 2 mg/kg, iv and 10 mg/kg, po. The data set is classed as ADME, organism-based. Conditions: read-out: BPR.

Consider `Cc1cc(C2CC2C(OC(=O)c2ccccc2)c2ccc(OC(F)(F)F)cc2)cc(C)c1OC(C)(C)C(=O)O` (single isomer, unassigned; diastereomer 1), for which the EC50 in data set [1] worked out at 21 nM; in data set [2], 116 nM; in data set [3] it was 79 nM.

On to `Cc1cc(C2CC2C(OC(=O)c2ccccc2)c2ccc(OC(F)(F)F)cc2)cc(C)c1OC(C)(C)C(=O)O` (single isomer, unassigned; diastereomer 2), for which the EC50 stood at 100 nM in data set [1], 23 nM in data set [2] and 122 nM in data set [3].

On to `COC(c1ccc(OC(F)(F)F)cc1)C1CC1c1cc(C)c(OC(C)(C)C(=O)O)c(C)c1` (single isomer, unassigned; enantiomer 1), for which the outcome in data set [4] and in data set [5] was Active. The compound further gave a half-maximal effective concentration (EC50) in data set [2] (cos-7) of 16 nM. For the same compound, the Kp in data set [6] worked out at 0.37.
